Results published in PubChem BioAssay (NCI).
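Method: 48-hour compound exposure of cells in 96-well plates, five concentrations, linear interpolation of endpoints. The concentration for 50% growth inhibition is given as GI50. The concentration for full growth arrest is given as TGI.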

What was measured:
Experiment in all cases: NCI anticancer screen, dose series, 48 h
PC-3 prostate = tested on: PC-3 prostate
NCI/ADR-RES ovarian = tested on: NCI/ADR-RES ovarian
SNB-75 CNS = tested on: SNB-75 CNS
NCI-H522 lung = tested on: NCI-H522 lung
A549 NSCLC = tested on: A549 NSCLC
MALME-3M melanoma = tested on: MALME-3M melanoma
A498 renal = tested on: A498 renal
HCC-2998 colon = tested on: HCC-2998 colon
SK-MEL-2 melanoma = tested on: SK-MEL-2 melanoma
SR leukemia = tested on: SR leukemia
TK-10 renal = tested on: TK-10 renal
SN12C renal = tested on: SN12C renal
OVCAR-8 ovarian = tested on: OVCAR-8 ovarian
NCI-H226 lung = tested on: NCI-H226 lung
OVCAR-4 ovarian = tested on: OVCAR-4 ovarian
MCF7 breast = tested on: MCF7 breast
HS 578T breast = tested on: HS 578T breast
U251 CNS = tested on: U251 CNS
HT29 colon = tested on: HT29 colon
CAKI-1 renal = tested on: CAKI-1 renal
BT-549 breast = tested on: BT-549 breast
M14 melanoma = tested on: M14 melanoma
HCT-116 colon = tested on: HCT-116 colon
HOP-92 NSCLC = tested on: HOP-92 NSCLC
UACC-62 melanoma = tested on: UACC-62 melanoma
ACHN renal = tested on: ACHN renal
HOP-62 NSCLC = tested on: HOP-62 NSCLC
SNB-19 CNS = tested on: SNB-19 CNS
K-562 leukemia = tested on: K-562 leukemia

Cc1cc(S(=O)(=O)/N=C(/N)Nc2ccccc2O)c(SCc2ccccc2)cc1Cl
TGI (PC-3 prostate): 32.4 µM
GI50 (NCI/ADR-RES ovarian): 16.7 µM
TGI (NCI/ADR-RES ovarian): 36.6 µM
GI50 (SNB-75 CNS): 19.3 µM
TGI (SNB-75 CNS): 39.2 µM
GI50 (NCI-H522 lung): 9.68 µM
TGI (NCI-H522 lung): 27.1 µM
GI50 (A549 NSCLC): 10.2 µM
TGI (A549 NSCLC): 32.1 µM
GI50 (MALME-3M melanoma): 20.3 µM
TGI (MALME-3M melanoma): 38.2 µM
GI50 (A498 renal): 21.2 µM
TGI (A498 renal): 39.1 µM
GI50 (HCC-2998 colon): 14.5 µM
TGI (HCC-2998 colon): 29.7 µM
GI50 (SK-MEL-2 melanoma): 10.6 µM
TGI (SK-MEL-2 melanoma): 26.2 µM
GI50 (SR leukemia): 5.79 µM
TGI (SR leukemia): > 100 µM
GI50 (TK-10 renal): 22.9 µM
TGI (TK-10 renal): 41.2 µM
GI50 (SN12C renal): 14.3 µM
TGI (SN12C renal): 30.4 µM
GI50 (OVCAR-8 ovarian): 12.9 µM
TGI (OVCAR-8 ovarian): 36 µM
GI50 (NCI-H226 lung): 33.1 µM
TGI (NCI-H226 lung): > 100 µM
GI50 (OVCAR-4 ovarian): 11.4 µM
TGI (OVCAR-4 ovarian): 34.9 µM
GI50 (MCF7 breast): 15.9 µM
TGI (MCF7 breast): 55.7 µM
GI50 (HS 578T breast): 21.8 µM
TGI (HS 578T breast): 47.9 µM
GI50 (U251 CNS): 14.9 µM
TGI (U251 CNS): 30.5 µM
GI50 (HT29 colon): 32.5 µM
TGI (HT29 colon): > 100 µM
GI50 (CAKI-1 renal): 13.5 µM
TGI (CAKI-1 renal): 32.3 µM
GI50 (BT-549 breast): 8.2 µM
TGI (BT-549 breast): 22.8 µM
GI50 (M14 melanoma): 15.3 µM
TGI (M14 melanoma): 32.3 µM
GI50 (HCT-116 colon): 15.1 µM
TGI (HCT-116 colon): 31.4 µM
GI50 (HOP-92 NSCLC): 15.3 µM
TGI (HOP-92 NSCLC): 35.6 µM
GI50 (UACC-62 melanoma): 9.6 µM
TGI (UACC-62 melanoma): 22.7 µM
GI50 (ACHN renal): 13 µM
TGI (ACHN renal): 27.4 µM
GI50 (HOP-62 NSCLC): 20.7 µM
TGI (HOP-62 NSCLC): 37.3 µM
GI50 (SNB-19 CNS): 16.6 µM
TGI (SNB-19 CNS): 34 µM
GI50 (K-562 leukemia): 10.2 µM
TGI (K-562 leukemia): > 100 µM
